Assays:
Assay type in all cases: in vivo
Conditions in all cases: 50 ppm, 100 = 100% disease control, 0 = no control
[1] = system: Phakopsora pachyrhizi; test: Test D: Asian soybean rust, preventive spray on soybean seedlings
How it was run: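 Compounds in acetone/water (50/50) with 250 ppm PEG400, dosed in ppm, sprayed to run-off on soybean seedlings; inoculated with P. pachyrhizi spores next day. Held 24 h at 22 °C in saturated air, then 8 days at 22 °C; visual rating of disease control, 0–100, relative to untreated controls.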

[2] = system: Alternaria solani; test: Test F: tomato early blight, preventive spray on tomato seedlings
How it was run: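 Tomato seedlings were sprayed to run-off with compound suspended in acetone/water (50/50) with 250 ppm PEG400 and inoculated with Alternaria solani spores the next day. Plants were held 48 h at 27 °C in saturated humidity, then 3 days at 20 °C. Disease control was rated visually from 0 to 100 against untreated controls.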

[3] = system: Puccinia recondita f. sp. tritici; test: Test B: wheat leaf rust, preventive spray on wheat seedlings
How it was run: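 Wheat seedlings were sprayed to run-off with compound suspended at ppm concentrations in acetone/water containing 250 ppm PEG400. The next day they were inoculated with Puccinia recondita f. sp. tritici spores, held saturated at 20 °C for 24 h, then kept 7 days at 20 °C. Disease control was rated 0–100% relative to untreated controls.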

[4] = system: Septoria tritici; test: Test A: wheat leaf blotch, preventive spray on wheat seedlings
How it was run: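 Wheat seedlings sprayed to run-off with compound suspended in acetone/water with 250 ppm PEG400 surfactant, inoculated next day with Septoria tritici spores. Held 48 h saturated at 24 °C, then 17 days at 20 °C; disease rated 0–100% control relative to controls.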

[5] = system: Blumeria graminis f. sp. tritici; test: Test C: wheat powdery mildew, preventive spray on wheat seedlings
How it was run: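 Seedlings were sprayed to run-off with compound suspended (ppm) in 50/50 acetone–water containing 250 ppm PEG400, then spore-dust inoculated the following day. After 8 days at 20° C, disease control was rated visually from 0 to 100 against controls.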

[6] = system: Botrytis cinerea; test: Test E: tomato Botrytis, preventive spray on tomato seedlings
How it was run: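 Compound suspended in 50/50 acetone/water with 250 ppm PEG400 surfactant and sprayed to run-off on tomato seedlings; Botrytis cinerea spores applied the next day. Incubation 48 h at 20° C in saturated atmosphere, then 3 days at 24° C. Visual rating 0–100% disease control relative to controls.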

Structure (SMILES) | Test D disease control rating [1] [%] | Test F disease control rating [2] [%] | Test B disease control rating [3] [%] | Test A disease control rating [4] [%] | Test C disease control rating [5] [%] | Test E disease control rating [6] [%]
COc1ccc(Nc2c(-c3ccc(F)cc3Br)c(C)nn2C)c([N+](=O)[O-])c1 [compound 52] | 59 | 94 | 100 | 100 | 90 | 99
Cc1nn(C)c(Nc2c(F)cc(F)cc2[N+](=O)[O-])c1-c1ccc(F)cc1Cl [compound 109] | 93 | 99 | 100 | 100 | 100 | 100
Cc1nn(C)c(Nc2ccc(Br)cc2[N+](=O)[O-])c1-c1ccc(F)cc1Br [compound 21] | 0 | 17 | 86 | 100 | 84 | 95
CCc1nn(C)c(Nc2ccc(C)cc2[N+](=O)[O-])c1-c1ccc(F)cc1F [compound 175] | 0 | 0 | 86 | 100 | 79 | 88
Cc1nn(C)c(Nc2ccc(F)cc2[N+](=O)[O-])c1-c1c(Cl)cccc1Cl [compound 54] | 0 | 0 | 91 | 100 | 93 | 21
Cc1nn(C)c(Nc2c(Cl)cc(Cl)cc2[N+](=O)[O-])c1-c1ccc(C#N)cc1Cl [compound 116] | 0 | 82 | 99 | 99 | 56 | 63
Cc1nn(C)c(Nc2c(F)cccc2[N+](=O)[O-])c1-c1c(Cl)cccc1Cl [compound 53] | 0 | 98 | 100 | 100 | 98 | 98
Cc1nn(C)c(Nc2c(F)cccc2[N+](=O)[O-])c1-c1c(F)cccc1F [compound 63] | 0 | 96 | 99 | 100 | 86 | 100
COc1cc(F)c(-c2c(C)nn(C)c2Nc2ccc(F)cc2[N+](=O)[O-])c(F)c1 [compound 83] | 0 | 99 | 91 | 99 | 99 | 98
COc1cc(F)c(-c2c(C)nn(C)c2Nc2ccc(OC)cc2[N+](=O)[O-])c(F)c1 [compound 161] | 0 | 99 | 100 | 100 | 100 | 100
Cc1nn(C)c(Nc2cc(F)c(F)cc2[N+](=O)[O-])c1-c1ccc(F)cc1Cl [compound 32] | 98 | 0 | 85 | 93 | 56 | 99
COc1ccc(-c2c(C)nn(C)c2Nc2c(F)cc(Br)cc2[N+](=O)[O-])c(Cl)c1 [compound 182] | 0 | 99 | 99 | 100 | 76 | 100
COc1cc(F)c(-c2c(C)nn(C)c2Nc2c(F)cccc2[N+](=O)[O-])c(F)c1 [compound 70] | 84 | 99 | 100 | 100 | 99 | 99
Cc1nn(C)c(Nc2cc(F)ccc2[N+](=O)[O-])c1-c1ccc(F)cc1Cl [compound 30] | 0 | 0 | 86 | 100 | 91 | 67
Cc1nn(C)c(Nc2c(F)cccc2[N+](=O)[O-])c1-c1c(F)cc(C#N)cc1F [compound 114] | 73 | 99 | 98 | 100 | 99 | 100
COc1cc(F)c(-c2c(C)nn(C)c2Nc2ccccc2[N+](=O)[O-])c(F)c1 [compound 147] | 0 | 99 | 86 | 96 | 97 | 100
Cc1nn(C)c(Nc2ccccc2[N+](=O)[O-])c1-c1c(F)cc(F)cc1F [compound 149] | 0 | 96 | 80 | 100 | 97 | 99
COc1cc(F)c(-c2c(C)nn(C)c2Nc2c(Cl)cccc2[N+](=O)[O-])c(F)c1 [compound 160] | 86 | 99 | 100 | 98 | 96 | 100
Cc1nn(C)c(Nc2c(F)cc(F)cc2[N+](=O)[O-])c1-c1c(F)cc(F)cc1Cl [compound 199] | 100 | 100 | 100 | 99 | 100 | 99
COc1ccc(-c2c(C)nn(C)c2Nc2c(C)cccc2[N+](=O)[O-])c(Cl)c1 [compound 183] | 0 | 58 | 99 | 100 | 78 | 100
Cc1ccc(Nc2c(-c3ccc(C#N)cc3Cl)c(C)nn2C)c([N+](=O)[O-])c1 [compound 14] | 48 | 83 | 97 | 100 | 83 | 96
Cc1nn(C)c(Nc2ccc(OCC(F)F)cc2[N+](=O)[O-])c1-c1ccc(F)cc1Cl [compound 36] | 25 | 0 | 89 | 100 | 56 | 100

From patent publication US20230148599A1, “FUNGICIDAL MIXTURES CONTAINING PYRAZOLE DERIVATIVES” (FMC Corporation, priority 2020, published 2023)
